Values of other authors, collected in patent US11759418B1, “Composition for treating wounds, dermatitis, inflammation, and irritation” (Chrism Products, Inc., priority 2016, dated 2023).
Like-named read-outs stand apart in the source and are kept apart here.

Key:
[1] = chemically synthesized bulk allantoin
wound healing process = conditions: results from histological analyses

Concentration (5% Glycerin in water, 20° C.)	Concentration (50% Isopropanol in water, 25° C.)	Concentration (Ethanol, 20° C.)	Concentration (Propylene glycol, 25° C.)	Concentration (Water, 20° C.)	Concentration (Water, 75° C.)	Compound	safety / toxicity [1]	effect on wound healing process (wound healing process)	concentration producing mild skin irritation (skin; clinical studies, dermal use)	concentration safe for dermal use (skin; in vivo)
ca 0.8%	ca. 0.3%	ca. 0.1%	ca. 0.3%	ca. 0.4%	ca. 4.0%	NC(=O)NC1NC(=O)NC1=O (stereo not shown) [Allantoin, 5-ureidohydantoin]	safe, non-toxic	benefits the wound healing process		
						benzyl-dimethyl-tridecylazanium [Benzalkonium Chloride]			≥ 5%	up to 0.5%
